In patent US20090143361A1, “Pyrido[3,2-E]Pyrazines, Process For Preparing The Same, And Their Use As Inhibitors Of Phosphodiesterase 10” (ELBION GMBH, priority 2007, published 2009) one finds IC50 data, which are given here for 27 molecules.

One may read the IC50 as the point on the concentration scale where inhibition reaches its midpoint.

Molecules are shown by their SMILES.

The target of the first assay is T1, human recombinant PDE10A (Homo sapiens, UniProt Q9Y233).
T1 construct: made in house; host or cells: SF21 insect cells (baculovirus)
T1 sequence (Q9Y233 1-779 isoform Q9Y233-1): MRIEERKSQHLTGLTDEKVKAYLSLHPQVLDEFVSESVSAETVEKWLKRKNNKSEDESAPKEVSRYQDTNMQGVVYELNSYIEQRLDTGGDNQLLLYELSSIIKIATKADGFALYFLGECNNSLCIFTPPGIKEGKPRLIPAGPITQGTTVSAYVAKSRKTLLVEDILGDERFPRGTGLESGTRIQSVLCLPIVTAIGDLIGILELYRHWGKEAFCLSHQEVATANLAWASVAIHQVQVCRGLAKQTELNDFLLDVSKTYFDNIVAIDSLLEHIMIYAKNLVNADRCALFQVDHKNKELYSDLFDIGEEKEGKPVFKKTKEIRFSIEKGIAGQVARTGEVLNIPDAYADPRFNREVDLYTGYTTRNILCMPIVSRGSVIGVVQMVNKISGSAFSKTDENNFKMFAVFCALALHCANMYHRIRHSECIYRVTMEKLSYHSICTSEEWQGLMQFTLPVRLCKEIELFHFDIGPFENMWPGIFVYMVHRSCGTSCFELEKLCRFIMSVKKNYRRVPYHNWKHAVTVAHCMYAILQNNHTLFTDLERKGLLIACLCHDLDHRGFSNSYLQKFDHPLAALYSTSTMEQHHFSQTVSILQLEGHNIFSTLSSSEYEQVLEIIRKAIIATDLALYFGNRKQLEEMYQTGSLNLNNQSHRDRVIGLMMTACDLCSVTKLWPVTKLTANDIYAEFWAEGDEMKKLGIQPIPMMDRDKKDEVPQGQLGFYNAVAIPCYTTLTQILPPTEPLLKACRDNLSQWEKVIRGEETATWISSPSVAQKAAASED
The experiment in a line: Inhibition of PDE10, human recombinant PDE10A ([3H]-cAMP SPA). To be noted: Table 7; read-out: Human PDE10 (IC50 nM). The assay is classed as biochemical. On the procedure:
The gene was than inserted into a baculovirus vector, ligated with the baculovirus DNA. The enzyme-protein was expressed in SF21-cells. The enzyme was isolated from these cells by harvesting the cells by a centrifugation at 200 g to collect the cells. The cells were resuspended in 50 mM Tris-HCl/5 mM MgCl2 buffer (pH=7.4) and lysed by a sonication of the cells. The cytosolic PDE10A was obtained by a centrifugation at 48000 g for 1 h in the supernatant and stored at −70° C. PDE10 activity was determined in a one step procedure in microtiterplates. […] Nonspecific activity was tested without the enzyme. The reaction was initiated by addition of the substrate solution and was carried out at 37° C. for 30 minutes. Enzymatic activity was stopped by addition of 25 μl YSi-SPA-beads (Amersham-Pharmacia). One hour later the mixture was measured in a liquid scintillation counter for microtiterplates (Microbeta Trilux). To pipette the incubation mixture a robot Biomek (Fa. Beckman) is used. […] For determination of IC50 values the Hill-plot, 2-parameter-model, was used.
As for `COc1ccc2nc(C)c3c(C)nc(-c4ccc(Cl)cc4F)n3c2n1` [Example 17, 9-(4-Chloro-2-fluorophenyl)-2-methoxy-6,7-dimethylimidazo[1,5-a]pyrido[3,2-e]pyrazine], the IC50 was 10 to 100 nM.

In the case of `COc1ccc2nc(C)c3c(C)nc(-c4cnc(F)c(C)c4)n3c2n1` [Example 33, 9-(6-Fluoro-5-methylpyridin-3-yl)-2-methoxy-6,7-dimethylimidazo[1,5-a]pyrido[3,2-e]pyrazine], the concentration for half-maximal inhibition (IC50) was 10 to 100 nM.

`COc1ccc2nc(C)c3c(C(F)(F)F)nc(-c4cnccc4OC)n3c2n1` [Example 34, 2-Methoxy-9-(4-methoxypyridin-3-yl)-6-methyl-7-(trifluoromethyl)imidazo[1,5-a]pyrido[3,2-e]pyrazine]: the IC50 was above 100 nM.

As to `COc1ccc2nc(C)c3c(C(F)(F)F)nc(-c4cc(C(N)=O)ccc4F)n3c2n1` [Example 36, 4-Fluoro-3-[2-methoxy-6-methyl-7-(trifluoromethyl)imidazo[1,5-a]pyrido[3,2-e]pyrazin-9-yl]benzamide], the IC50 lay within 10 to 100 nM.

With `COc1ccc2nc(N)c3c(C(F)(F)F)nc(-c4ccccc4C)n3c2n1` [Example 38, 2-Methoxy-9-(2-methylphenyl)-7-(trifluoromethyl)imidazo[1,5-a]pyrido[3,2-e]pyrazin-6-amine], the IC50 lay in the range of 10 to 100 nM.

For `COc1ccc2nc(NS(C)(=O)=O)c3c(C(F)(F)F)nc(-c4ccccc4C)n3c2n1` [Example 39, N-[2-Methoxy-9-(2-methylphenyl)-7-(trifluoromethyl)imidazo[1,5-a]pyrido[3,2-e]pyrazin-6-yl]methanesulfonamide], the IC50 was below 10 nM.

Take `COc1ccc2nc(C#N)c3c(C)nc(-c4cc(Cl)ccc4Cl)n3c2n1` [Example 40, 9-(2,5-Dichlorophenyl)-2-methoxy-7-methylimidazo[1,5-a]pyrido[3,2-e]pyrazine-6-carbonitrile]: the IC50 was in the range of 10 to 100 nM.

The target of a further assay is PDE10 from pig striatum (Sus scrofa, UniProt A0A287B941). The experiment in a line: Inhibition of PDE10 from pig striatum ([3H]-cAMP SPA). The assay is classed as biochemical. The note with it: Table 8; read-out: PDE10 pig IC50. On the procedure: Phosphodiesterase isoenzyme 10 (PDE10) activity was determined in preparations of human recombinant PDE10A and PDE10 from pig striatum, respectively.
Striatum from male hybrid pigs (150 kg) were collected and frozen at −70° C.
At the day of preparation 0.5 g striatum was homogenised in 10 ml 50 mM Tris/Mg-buffer at 4° C. and centrifuged for one hour at 100000 g. The supernatant was removed and the pellet was resuspended in the same buffer, but containing 1% Triton and incubated for 45 min at 4° C. The membrane fraction was applied onto a 5 ml Hi Trap™ QHP column at the Akta-FPLC. After washing the column the bound PDE protein was eluted with an increasing sodium chloride gradient (O mM-500 mM sodium chloride) in 50 mM Tris/Mg-buffer at 4° C. in the presence of 1% Triton. […] The fractions with PDE10-activity were pooled and frozen in aliquots until use at −20° C.
PDE10 activity was determined in a one step procedure in microtiterplates. […] Nonspecific activity was tested without the enzyme. The reaction was initiated by addition of the substrate solution and was carried out at 37° C. for 30 minutes. Enzymatic activity was stopped by addition of 25 μl YSi-SPA-beads (Amersham-Pharmacia). One hour later the mixture was measured in a liquid scintillation counter for microtiterplates (Microbeta Trilux). To pipette the incubation mixture a robot Biomek (Fa. Beckman) is used. […] For determination of IC50 values the Hill-plot, 2-parameter-model, was used.
The phosphodiesterase isoenzyme 10 (PDE10) activity was determined in preparations of rat, pig and guinea pig striatum respectively. Striatum from male Wistar rats (180-200 g), male hybrid pigs (150 kg) and male guinea pigs (CRL (HA), 500 g) respectively were collected and frozen at −70° C.
At the day of preparation 0.5 g striatum was homogenized in 10 ml 50 mM Tris/Mg-buffer at 4° C. and centrifuged for one hour at 100000 g. The supernatant is called the cytosolic fraction and was removed and stored on ice. The pellet was resuspended in the same buffer, but containing 1% Triton and incubated for 45 min at 4° C. Both fractions were independently applied onto a 5 ml Hi Trap™ QHP column at the Akta-FPLC. After washing the columns the bound PDE protein was eluted with an increasing sodium chloride gradient (0 mM-500 mM sodium chloride) in 50 mM Tris/Mg-buffer at 4° C. for the cytosolic fraction and in the presence of 1% Triton for the membrane fraction. […] The fractions with PDE10-activity were pooled and frozen in aliquots until use at −20° C.
PDE10 activity was determined in a one step procedure in microtiterplates. […] Nonspecific activity was tested without the enzyme. The reaction was initiated by addition of the substrate solution and was carried out at 37° C. for 30 minutes. Enzymatic activity was stopped by addition of 25 μl YSi-SPA beads (Amersham-Pharmacia). One hour later the mixture was measured in a liquid scintillation counter for microtiterplates (Microbeta Trilux). To pipette the incubation mixture a robot Biomek (Fa. Beckman) is used. […] For determination of IC50 values the Hill-plot, 2-parameter-model, was used.
As to `COc1ccc2nc(C)c3c(C)nc(-c4ccc(Cl)cc4OC)n3c2n1` [Example 90, 9-(4-Chloro-2-methoxyphenyl)-2-methoxy-6,7-dimethylimidazo[1,5-a]pyrido[3,2-e]pyrazine], the IC50 fell in the range of 10 to 100 nM.

With `COc1ccc2nc(C)c3c(C)nc(-c4ccc(Cl)cc4C(F)(F)F)n3c2n1` [Example 91, 9-[4-Chloro-2-(trifluoromethyl)phenyl]-2-methoxy-6,7-dimethylimidazo[1,5-a]pyrido[3,2-e]pyrazine], the 50% inhibitory concentration (IC50) was below 10 nM.

On to `COc1ccc2nc(C)c3c(C)nc(-c4ccc(Cl)s4)n3c2n1` [Example 92, 9-(5-Chloro-2-thienyl)-2-methoxy-6,7-dimethylimidazo[1,5-a]pyrido[3,2-e]pyrazine], for which the IC50 lay in the range of 10 to 100 nM.

Turning to `COc1ccc2nc(C)c3c(C)nc(-c4cccc(C(N)=O)c4)n3c2n1` [Example 93, 3-(2-Methoxy-6,7-dimethylimidazo[1,5-a]pyrido[3,2-e]pyrazin-9-yl)benzamide], the IC50 was below 10 nM.

For `COc1cccc(C#Cc2nc(C)c3c(C)nc4ccc(OC)nc4n23)c1` [Example 94, 2-Methoxy-9-[(3-methoxyphenyl)ethynyl]-6,7-dimethylimidazo[1,5-a]pyrido[3,2-e]pyrazine], the IC50 was above 100 nM.

As to `COc1ccc2nc(C)c3c(C)nc(C#CC4CCCCC4)n3c2n1` [Example 95, 9-(Cyclohexylethynyl)-2-methoxy-6,7-dimethylimidazo[1,5-a]pyrido[3,2-e]pyrazine], the IC50 was above 100 nM.

As to `COc1ccc2nc(C)c3c(C)nc(C#Cc4ccccc4Cl)n3c2n1` [Example 96, 9-[(2-Chlorophenyl)ethynyl]-2-methoxy-6,7-dimethylimidazo[1,5-a]pyrido[3,2-e]pyrazine], the IC50 was 10 to 100 nM.

As to `COc1ccc2nc(C)c3c(C)nc(C#CC4CC4)n3c2n1` [Example 97, 9-(Cyclopropylethynyl)-2-methoxy-6,7-dimethylmidazo[1,5-a]pyrido[3,2-e]pyrazine], the IC50 lay within 10 to 100 nM.

For `COc1ccc2nc(C)c3c(C)nc(C#Cc4ccccc4OC)n3c2n1` [Example 98, 2-Methoxy-9-[(2-methoxyphenyl)ethynyl]-6,7-dimethylimidazo[1,5-a]pyrido[3,2-e]pyrazine], the IC50 was above 100 nM.

Turning to `COc1ccc2nc(C)c3c(C)nc(C#Cc4ccccc4C)n3c2n1` [Example 99, 2-Methoxy-6,7-dimethyl-9-[(2-methylphenyl)ethynyl]imidazo[1,5-a]pyrido[3,2-e]pyrazine], the IC50 is above 100 nM.

For `CNC(=O)c1cccc(-c2nc(C)c3c(C)nc4ccc(OC)nc4n23)c1` [Example 100, 3-(2-Methoxy-6,7-dimethylimidazo[1,5-a]pyrido[3,2-e]pyrazin-9-yl)-N-methylbenzamide], the IC50 was above 100 nM.

In the case of `CCNC(=O)c1cccc(-c2nc(C)c3c(C)nc4ccc(OC)nc4n23)c1` [Example 101, N-Ethyl-3-(2-methoxy-6,7-dimethylimidazo[1,5-a]pyrido[3,2-e]pyrazin-9-yl)benzamide], the IC50 is 10 to 100 nM.

Turning to `CONC(=O)c1cccc(-c2nc(C)c3c(C)nc4ccc(OC)nc4n23)c1` [Example 102, N-Methoxy-3-(2-methoxy-6,7-dimethylimidazo[1,5-a]pyrido[3,2-e]pyrazin-9-yl)benzamide], the IC50 lay in the range of 10 to 100 nM.

Regarding `COc1ccc2nc(C)c3c(C)nc(-c4cccc(C(=O)NC(C)C)c4)n3c2n1` [Example 103, N-Isopropyl-3-(2-methoxy-6,7-dimethylimidazo[1,5-a]pyrido[3,2-e]pyrazin-9-yl)benzamide], the IC50 lay in the range of 10 to 100 nM.

Consider `COc1ccc2nc(C)c3c(C)nc(-c4cccc(C(=O)N(C)C)c4)n3c2n1` [Example 104, 3-(2-Methoxy-6,7-dimethylimidazo[1,5-a]pyrido[3,2-e]pyrazin-9-yl)-N,N-dimethylbenzamide], for which the half-maximal inhibitory concentration (IC50) was above 100 nM.

Take `COc1ccc2nc(C)c3c(C)nc(-c4cccc(C(=O)N5CCCCC5)c4)n3c2n1` [Example 105, 2-Methoxy-6,7-dimethyl-9-[3-(piperidin-1-ylcarbonyl)phenyl]imidazo[1,5-a]pyrido[3,2-e]pyrazine]: the IC50 is above 100 nM.

Consider `COc1ccc2nc(C)c3c(C)nc(-c4cc(C(N)=O)ccc4F)n3c2n1` [Example 106, 4-Fluoro-3-(2-methoxy-6,7-dimethylimidazo[1,5-a]pyrido[3,2-e]pyrazin-9-yl)benzamide], for which the IC50 was below 10 nM.

`CNC(=O)c1ccc(F)c(-c2nc(C)c3c(C)nc4ccc(OC)nc4n23)c1` [Example 107, 4-Fluoro-3-(2-methoxy-6,7-dimethylimidazo[1,5-a]pyrido[3,2-e]pyrazin-9-yl)-N-methylbenzamide]: the IC50 is above 100 nM.

The same assay, now with this note: Table 9, cells marked pPDE10; read-out: IC50 (nM) (pPDE10).
For `COc1ccc2nc(C#N)c3c(C)nc(-c4ccccc4Cl)n3c2n1` [Example 111, 9-(2-chlorophenyl)-2-methoxy-7-methylimidazo[1,5-a]pyrido[3,2-e]pyrazine-6-carbonitrile], the IC50 was below 10 nM.

Regarding `COc1ccc2nc(C#N)c3c(C)nc(-c4ccc(Cl)cc4Cl)n3c2n1` [Example 112, 9-(2,4-dichlorophenyl)-2-methoxy-7-methylimidazo[1,5-a]pyrido[3,2-e]pyrazine-6-carbonitrile], the IC50 was below 10 nM.
